Data: the supplement of paper PMC8671470
± gives the standard deviation of the averaged measurements.

Experiments:
Conditions in all cases: 72 h
BV-173 [1] = system: BV-173
Summary of the method: (§1)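 Fifteen myeloid leukaemia cell lines were seeded in RPMI 1640 at densities titrated to the linear growth range and placed in 384-well plates with acoustically pre-printed compounds at five tenfold doses from 1 to 10,000 nM, in duplicate. After 72 h at 37 °C with 5% CO2, luminescent ATP viability was normalised to vehicle and to a positive control at 10 µM, and curves were fitted with a four-parameter log-logistic model. The IC50 was obtained from these fits.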

HEL [2] = system: HEL
Summary of the method: as §1

HL-60 [3] = system: HL-60
Summary of the method: as §1

K-562 [4] = system: K-562
Summary of the method: as §1

KCL-22 = system: KCL-22
Summary of the method: as §1

KG-1 = system: KG-1
Summary of the method: as §1

KU-812 [5] = system: KU-812
Summary of the method: as §1

LAMA-84 [6] = system: LAMA-84
Summary of the method: as §1

ML-2 [7] = system: ML-2
Summary of the method: as §1

MOLM-13 = system: MOLM-13
Summary of the method: as §1

MV4-11 [8] = system: MV4-11
Summary of the method: as §1

Mono-Mac-6 [9] = system: Mono-Mac-6
Summary of the method: as §1

NOMO-1 [10] = system: NOMO-1
Summary of the method: as §1

SHI-1 [11] = system: SHI-1
Summary of the method: as §1

THP-1 [12] = system: THP-1
Summary of the method: as §1

HL-60 [13] = assay: cell viability (% survival relative to DMSO control); higher = less cytotoxic
Summary of the method: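 In 384-well plates, the full library was rescreened in duplicate on HL-60 cells in RPMI 1640 with 10% FBS, at 1–10,000 nM in five tenfold concentrations, for 72 h at 37 °C, 5% CO2. Each run also held DMSO or 100 nM of one of three metabolic inhibitors. Viability was measured by CellTiter-Glo and normalised to DMSO wells and to wells with proteasome inhibitor, present at 10 μM. Any area under the curve comes from four-parameter log-logistic fitting with drc and PharmacoGx.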

BV-173 [14] = assay: cell viability (% survival relative to DMSO control, bortezomib = 0%); higher = less cytotoxic
Summary of the method: (§2)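 Fifteen myeloid leukaemia cell lines (10 AML, 5 CML) were seeded at a density titrated to the linear growth range into 384-well plates pre-printed with compounds at 1, 10, 100, 1000 or 10000 nM in duplicate. Plates were incubated for 72 h at 37 °C with 5% CO2. Viability was then read by CellTiter-Glo luminescence. Each value is percent survival averaged over the duplicates, with vehicle set to 100% and a 10 µM positive control to 0%.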

HEL [15] = assay: as above
Summary of the method: as §2

HL-60 [16] = assay: as above
Summary of the method: as §2

K-562 [17] = assay: as above
Summary of the method: as §2

KU-812 [18] = assay: as above
Summary of the method: as §2

LAMA-84 [19] = assay: as above
Summary of the method: as §2

ML-2 [20] = assay: as above
Summary of the method: as §2

MV4-11 [21] = assay: as above
Summary of the method: as §2

Mono-Mac-6 [22] = assay: as above
Summary of the method: as §2

NOMO-1 [23] = assay: as above
Summary of the method: as §2

SHI-1 [24] = assay: as above
Summary of the method: as §2

THP-1 [25] = assay: as above
Summary of the method: as §2

CC(C)c1cc2c(c(O)c1O)[C@@]1(C(=O)O)CCCC(C)(C)[C@@H]1CC2 [Carnosic acid]
Conditions	IC50 (cell viability) [µM]
BV-173 [1]	5.01
HEL [2]	> 10
HL-60 [3]	> 10
K-562 [4]	> 10
KCL-22	> 10
KG-1	> 10
KU-812 [5]	> 10
LAMA-84 [6]	> 10
ML-2 [7]	> 10
MOLM-13	> 10
MV4-11 [8]	> 10
Mono-Mac-6 [9]	> 10
NOMO-1 [10]	> 10
SHI-1 [11]	> 10
THP-1 [12]	> 10

cell viability [%], HL-60 [13]
Conditions	0.001 µM	0.01 µM	0.1 µM	1 µM	10 µM
co-treatment: AZD3965 100 nM	98.3 ± 1.3	101 ± 5.2	117 ± 20	98.58 ± 0.66	100 ± 1.1
co-treatment: DMSO vehicle	96.16 ± 0.17	100.2 ± 0.6	99.2 ± 2.8	97.53 ± 0.66	103 ± 2.5
co-treatment: GSK2194069 100 nM	101 ± 5.3	89.4 ± 19	105 ± 5.3	99.3 ± 2.7	95.3 ± 2.3
co-treatment: pictilisib 100 nM	93.2 ± 7.5	102 ± 2.3	97.6 ± 10	96.1 ± 1.2	116 ± 11

cell viability [%]
Conditions	1 nM	10 nM	100 nM	1000 nM	10000 nM
BV-173 [14]	87.5	96.7	98.2	82.6	43.8
HEL [15]	100	112	92.1	100	97.4
HL-60 [16]	99.7	97.3	89.3	91.5	109
K-562 [17]	105	93.4	89.4	87.4	83.2
KU-812 [18]	94.3	100	89.4	92.6	74.1
LAMA-84 [19]	97.7	98	102	91.1	96.6
ML-2 [20]	93.4	105	85.9	94.5	67.6
MV4-11 [21]	98.5	103	93.5	91.7	79.9
Mono-Mac-6 [22]	92.7	102	103	90.4	64.3
NOMO-1 [23]	96.5	100	96.9	99	102
SHI-1 [24]	101	112	95	112	108
THP-1 [25]	98.3	101	109	83.9	66.9

CCN(CC)CCCC(C)Nc1ccnc2cc(Cl)ccc12 (stereo not given) [Chloroquine]
Conditions	IC50 (cell viability) [µM]
BV-173 [1]	> 10
HEL [2]	> 10
HL-60 [3]	> 10
K-562 [4]	> 10
KCL-22	> 10
KG-1	> 10
KU-812 [5]	> 10
LAMA-84 [6]	> 10
ML-2 [7]	> 10
MOLM-13	> 10
MV4-11 [8]	> 10
Mono-Mac-6 [9]	> 10
NOMO-1 [10]	> 10
SHI-1 [11]	> 10
THP-1 [12]	> 10

cell viability [%], HL-60 [13]
Conditions	0.001 µM	0.01 µM	0.1 µM	1 µM	10 µM
co-treatment: AZD3965 100 nM	102 ± 1.2	87.5 ± 17	107.4 ± 0.11	104 ± 5.8	97.5 ± 7.8
co-treatment: DMSO vehicle	104 ± 3.9	91.3 ± 17	102.4 ± 0.66	106 ± 4.4	99.7 ± 1.6
co-treatment: GSK2194069 100 nM	102.2 ± 0.76	77.2 ± 30	98.3 ± 1.5	102 ± 5.2	89.7 ± 6.5
co-treatment: pictilisib 100 nM	96.1 ± 2.8	67.7 ± 45	104 ± 2.7	103.8 ± 0.31	100 ± 22

cell viability [%]
Conditions	1 nM	10 nM	100 nM	1000 nM	10000 nM
BV-173 [14]	111	89.5	111	97.1	85.2
HEL [15]	95.4	94.5	89.6	97.6	104
HL-60 [16]	101	79.8	97.1	101	76.4
K-562 [17]	101	111	105	103	86.3
KU-812 [18]	109	97.8	102	98.1	96.9
LAMA-84 [19]	105	101	101	101	99.1
ML-2 [20]	108	98.7	97	100	94
MV4-11 [21]	108	93.7	105	104	90.5
Mono-Mac-6 [22]	105	94.9	104	93.4	92.1
NOMO-1 [23]	110	99.3	97.9	96.2	93.7
SHI-1 [24]	108	106	96.6	89.8	92
THP-1 [25]	108	101	101	98.7	98.5

Nc1nc(Cl)nc2c1ncn2[C@H]1C[C@H](O)[C@@H](CO)O1 [Cladribine]
Conditions	IC50 (cell viability) [µM]
BV-173 [1]	0.00438
HEL [2]	0.0335
HL-60 [3]	0.0471
K-562 [4]	0.219
KCL-22	0.142
KG-1	0.384
KU-812 [5]	0.0989
LAMA-84 [6]	0.0992
ML-2 [7]	0.238
MOLM-13	0.0253
MV4-11 [8]	0.0202
Mono-Mac-6 [9]	0.0212
NOMO-1 [10]	0.0529
SHI-1 [11]	0.0439
THP-1 [12]	0.358

cell viability [%], HL-60 [13]
Conditions	0.001 µM	0.01 µM	0.1 µM	1 µM	10 µM
co-treatment: AZD3965 100 nM	100 ± 2.3	104 ± 3.5	67.648 ± 0.059	3.68 ± 1.7	3.27 ± 0.58
co-treatment: DMSO vehicle	101 ± 3	104 ± 1.1	88.9 ± 5.8	3.39 ± 2.3	4.06 ± 0.94
co-treatment: GSK2194069 100 nM	98.2 ± 5.8	101 ± 9.5	62.7 ± 7	3.78 ± 2	4.3 ± 2.3
co-treatment: pictilisib 100 nM	98.9 ± 5.9	102 ± 11	37.1 ± 4.7	3.81 ± 2.1	3.84 ± 2.1

cell viability [%]
Conditions	1 nM	10 nM	100 nM	1000 nM	10000 nM
BV-173 [14]	128	4.77	-0.0212	0.000225	-0.197
HEL [15]	105	99.2	3.91	0.404	0.141
HL-60 [16]	108	88.3	26.6	1.62	-0.177
K-562 [17]	110	97.5	79.8	28.8	20.5
KU-812 [18]	112	101	53.3	16.5	5.32
LAMA-84 [19]	112	100	51.1	5.53	1.72
ML-2 [20]	117	100	85.5	7.04	2.51
MV4-11 [21]	129	81	-0.607	-0.0489	-0.0474
Mono-Mac-6 [22]	113	82.5	1.25	0.0892	-0.125
NOMO-1 [23]	111	101	21.5	1.41	0.34
SHI-1 [24]	87.7	88.7	13.6	0.494	-0.0158
THP-1 [25]	102	93.7	102	24.2	26.3
